Read-outs that look alike come from different tables or passages of the source.

As a reminder, the Ki is a dissociation constant, usually derived from enzyme kinetics or from competition with a known ligand. Lower therefore signals tighter binding.

Experiment [1] addresses T1, 5-HT1D (Homo sapiens, UniProt P28221).
T1 construct: gene HTR1D; full-length receptor; HEK293 with TRUPATH sensors (function)
Nature of the experiment: competitive radioligand binding, HEK293 membranes.

In experiment [2] the target is T2, CHRM1 (Homo sapiens, UniProt P11229).
T2 sequence (P11229 1-460): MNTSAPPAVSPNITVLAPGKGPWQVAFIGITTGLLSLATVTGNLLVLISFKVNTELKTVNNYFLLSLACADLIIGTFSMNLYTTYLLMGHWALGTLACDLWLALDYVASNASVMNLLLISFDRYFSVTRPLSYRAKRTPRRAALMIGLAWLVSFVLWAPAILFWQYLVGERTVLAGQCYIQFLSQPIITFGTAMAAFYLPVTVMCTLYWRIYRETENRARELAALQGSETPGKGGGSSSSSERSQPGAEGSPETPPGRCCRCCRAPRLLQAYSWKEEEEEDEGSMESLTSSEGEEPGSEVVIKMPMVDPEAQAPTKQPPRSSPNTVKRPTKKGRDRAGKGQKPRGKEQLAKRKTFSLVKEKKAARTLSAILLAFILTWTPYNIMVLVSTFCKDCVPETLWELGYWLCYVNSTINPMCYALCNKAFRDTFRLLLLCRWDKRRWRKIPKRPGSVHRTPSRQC
Description: cell-based. The conditions noted are these: Assay=Calcium, agonist mode, % of control agonist. Further details: species or system HEK293; Fluo-4 Direct calcium mobilization on FLIPR-Tetra.

The target in experiment [3] is CHRM3 (Homo sapiens, UniProt P20309). Description: cell-based. Details: species or system HEK293; Fluo-4 Direct calcium mobilization on FLIPR-Tetra. The conditions noted are these: Assay=Calcium, agonist mode, % of control agonist.
CHRM3, sequence (P20309 whole entry): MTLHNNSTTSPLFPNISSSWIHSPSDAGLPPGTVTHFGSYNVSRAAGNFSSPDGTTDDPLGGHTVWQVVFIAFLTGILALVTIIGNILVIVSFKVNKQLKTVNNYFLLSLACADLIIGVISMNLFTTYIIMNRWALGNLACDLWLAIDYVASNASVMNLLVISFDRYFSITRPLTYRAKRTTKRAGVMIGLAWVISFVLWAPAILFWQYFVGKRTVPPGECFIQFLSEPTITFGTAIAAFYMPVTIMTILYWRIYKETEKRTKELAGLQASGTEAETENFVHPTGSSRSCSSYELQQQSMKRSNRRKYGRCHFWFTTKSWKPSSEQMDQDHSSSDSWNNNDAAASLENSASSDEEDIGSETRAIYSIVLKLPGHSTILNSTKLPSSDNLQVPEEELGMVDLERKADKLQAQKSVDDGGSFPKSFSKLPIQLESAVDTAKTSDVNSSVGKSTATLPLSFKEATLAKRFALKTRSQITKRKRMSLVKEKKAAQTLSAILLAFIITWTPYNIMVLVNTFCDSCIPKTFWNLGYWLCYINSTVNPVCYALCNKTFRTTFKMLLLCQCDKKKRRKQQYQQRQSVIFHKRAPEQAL
The target in experiment [4] is T3, CHRM5 (Homo sapiens, UniProt P08912).
T3 sequence (P08912 1-532): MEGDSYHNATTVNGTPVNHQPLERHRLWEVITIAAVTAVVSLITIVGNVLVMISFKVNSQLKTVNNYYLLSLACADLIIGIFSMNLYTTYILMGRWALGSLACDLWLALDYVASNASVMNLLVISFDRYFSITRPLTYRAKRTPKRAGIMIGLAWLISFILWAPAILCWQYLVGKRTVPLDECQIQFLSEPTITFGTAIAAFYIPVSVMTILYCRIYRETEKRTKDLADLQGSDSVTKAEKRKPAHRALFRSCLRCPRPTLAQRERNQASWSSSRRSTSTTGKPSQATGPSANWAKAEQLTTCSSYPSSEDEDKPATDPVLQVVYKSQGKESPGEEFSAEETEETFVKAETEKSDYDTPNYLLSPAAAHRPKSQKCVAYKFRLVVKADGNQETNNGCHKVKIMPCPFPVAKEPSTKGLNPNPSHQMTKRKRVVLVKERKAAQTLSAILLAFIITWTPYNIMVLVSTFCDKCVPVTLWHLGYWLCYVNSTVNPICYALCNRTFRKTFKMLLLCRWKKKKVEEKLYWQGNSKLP
Description: cell-based. Further details: species or system HEK293; Fluo-4 Direct calcium mobilization on FLIPR-Tetra. The following applies: Assay=Calcium, agonist mode, % of control agonist.

The target in experiment [5] is T4, CHRM4 (Homo sapiens, UniProt P08173).
T4 sequence (P08173 1-479): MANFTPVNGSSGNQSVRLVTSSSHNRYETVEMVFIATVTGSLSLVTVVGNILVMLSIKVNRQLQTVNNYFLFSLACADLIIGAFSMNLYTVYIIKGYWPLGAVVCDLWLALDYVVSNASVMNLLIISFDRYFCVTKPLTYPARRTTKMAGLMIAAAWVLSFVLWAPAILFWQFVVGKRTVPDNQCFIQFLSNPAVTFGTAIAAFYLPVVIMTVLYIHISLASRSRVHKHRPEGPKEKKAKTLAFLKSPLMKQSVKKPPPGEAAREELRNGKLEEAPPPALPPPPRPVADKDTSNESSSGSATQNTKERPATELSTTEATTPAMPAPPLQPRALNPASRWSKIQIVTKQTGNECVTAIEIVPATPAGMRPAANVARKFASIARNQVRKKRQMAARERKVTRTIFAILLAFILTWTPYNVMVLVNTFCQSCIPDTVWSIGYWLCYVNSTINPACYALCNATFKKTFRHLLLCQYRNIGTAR
Description: cell-based. Details: species or system HEK293; TRUPATH BRET2 G-protein dissociation; antagonist mode against agonist EC80. The following applies: agonist mode, % of control agonist.

Experiment [6] addresses T3, CHRM5. Description: cell-based. Details: species or system HEK293; TRUPATH BRET2 G-protein dissociation; antagonist mode against agonist EC80. The conditions noted are these: agonist mode, % of control agonist.
For experiment [7], the target named is HRH4 (Homo sapiens, UniProt Q9H3N8). Description: cell-based. Further details: species or system HEK293; TRUPATH BRET2 G-protein dissociation; antagonist mode against agonist EC80. The following applies: agonist mode, % of control agonist.
HRH4, sequence (Q9H3N8 whole entry): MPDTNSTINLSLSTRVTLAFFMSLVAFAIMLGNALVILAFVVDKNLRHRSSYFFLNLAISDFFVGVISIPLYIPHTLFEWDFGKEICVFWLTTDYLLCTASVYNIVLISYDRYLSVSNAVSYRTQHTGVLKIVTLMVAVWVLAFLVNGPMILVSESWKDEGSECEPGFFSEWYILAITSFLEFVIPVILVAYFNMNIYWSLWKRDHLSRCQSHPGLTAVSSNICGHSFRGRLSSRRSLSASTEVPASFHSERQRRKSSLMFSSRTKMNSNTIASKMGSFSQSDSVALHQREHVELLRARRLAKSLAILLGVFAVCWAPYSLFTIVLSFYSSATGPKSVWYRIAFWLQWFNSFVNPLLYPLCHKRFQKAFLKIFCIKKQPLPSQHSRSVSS
In experiment [8] the target is T5, 5-HT5A (Homo sapiens, UniProt P47898).
T5 construct: gene HTR5A; full-length receptor; HEK293 cell membranes
T5 sequence (P47898 whole entry): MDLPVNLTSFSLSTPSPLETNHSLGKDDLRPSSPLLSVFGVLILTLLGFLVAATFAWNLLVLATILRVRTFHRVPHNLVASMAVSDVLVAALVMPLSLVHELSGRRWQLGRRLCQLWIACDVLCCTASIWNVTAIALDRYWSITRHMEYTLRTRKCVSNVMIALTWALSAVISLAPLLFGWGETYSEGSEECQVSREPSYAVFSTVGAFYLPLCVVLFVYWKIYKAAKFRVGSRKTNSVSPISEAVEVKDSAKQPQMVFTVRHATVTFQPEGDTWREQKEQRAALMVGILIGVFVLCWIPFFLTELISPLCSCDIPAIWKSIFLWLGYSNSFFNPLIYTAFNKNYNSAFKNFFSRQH
Description: competitive radioligand binding, HEK293 membranes. The source says:
competitive radioligand binding, HEK293 membranes on 5-HT5A

The mark [9] stands for this setting: HEK293, read-out: N-Desmethyl Xanomeline.
The mark [10] stands for this setting: HEK293, read-out: N-Desmethyl Xanomeline, Assay=Gi1.
Where [11] appears, read: HEK293, read-out: N-Desmethyl Xanomeline, Assay=Gi2.
[12] abbreviates: HEK293, read-out: N-Desmethyl Xanomeline, Assay=Gi3.
Setting [13] is: HEK293, read-out: N-Desmethyl Xanomeline, Assay=GoA.
The mark [14] stands for this setting: HEK293, read-out: Xanomeline, Assay=Gi1.
The mark [15] stands for this setting: HEK293, read-out: Xanomeline, Assay=Gi2.
[16] abbreviates: HEK293, read-out: Xanomeline, Assay=Gi3.
[17] abbreviates: HEK293, read-out: Xanomeline, Assay=GoA.

T1 sequence (P28221 whole entry): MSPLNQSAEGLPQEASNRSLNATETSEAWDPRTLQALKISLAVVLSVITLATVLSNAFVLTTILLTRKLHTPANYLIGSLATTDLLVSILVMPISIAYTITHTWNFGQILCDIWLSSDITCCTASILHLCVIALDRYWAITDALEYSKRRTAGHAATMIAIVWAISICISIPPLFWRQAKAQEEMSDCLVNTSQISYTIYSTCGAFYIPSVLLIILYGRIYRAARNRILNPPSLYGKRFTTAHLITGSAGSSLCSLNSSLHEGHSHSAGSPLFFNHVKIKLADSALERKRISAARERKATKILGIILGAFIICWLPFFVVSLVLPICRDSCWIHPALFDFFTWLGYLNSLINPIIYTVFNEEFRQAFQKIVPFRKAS

Turning to `CCCCCCOc1nsnc1C1=CCCNC1` [N-desmethylxanomeline], the Ki in experiment [1] is 38.9 nM. Also, the Emax was 24.3% in experiment [2] (setting [9]); 39% in experiment [3] (setting [9]); 31.9% in experiment [4] (setting [9]); 94.1% in experiment [5] (setting [10]); 106% in experiment [5] (setting [11]); 81.3% in experiment [5] (setting [12]). For the same compound, the Emax in experiment [5] (setting [13]) turned out to be 100%; in experiment [5] (HEK293, read-out: N-Desmethyl Xanomeline, Assay=GoB), 102%; in experiment [5] (HEK293, read-out: N-Desmethyl Xanomeline, Assay=Gz), 89%; in experiment [6] (HEK293, read-out: N-Desmethyl Xanomeline, Assay=Gq) it was 80.4%; in experiment [7] (setting [10]), 79.3%; in experiment [7] (setting [11]) it was 81%. Further, the Emax in experiment [7] (setting [12]) came to 86.8%; in experiment [7] (setting [13]), 81.7%.

Take `CCCCCCOc1nsnc1C1=CCCN(C)C1` [Xanomeline]: in experiment [8], the Ki was 794 nM. Further, the Emax stood at 25.6% in experiment [2] (HEK293, read-out: Xanomeline); 41% in experiment [3] (HEK293, read-out: Xanomeline); 35.4% in experiment [4] (HEK293, read-out: Xanomeline); 98.4% in experiment [5] (setting [14]); 110% in experiment [5] (setting [15]); 86% in experiment [5] (setting [16]). Further, the Emax in experiment [5] (setting [17]) was determined as 107%; in experiment [5] (HEK293, read-out: Xanomeline, Assay=GoB), 106%; in experiment [5] (HEK293, read-out: Xanomeline, Assay=Gz) it was 94.1%; in experiment [6] (HEK293, read-out: Xanomeline, Assay=Gq), 82%; in experiment [7] (setting [14]), 49.5%; in experiment [7] (setting [15]), 65.8%. The values for the Emax in experiment [7] (setting [16]) and in experiment [7] (setting [17]) were 40.2% and 37.4%, respectively.

Source of the values: publication doi:10.1101/2025.11.20.689572v1 (biorxiv, 2025).
